The test system of the experiment is green peach aphid (Myzus persicae). The experiment can be described thus: Myzus test (spray treatment) on Chinese cabbage leaf disks. The class given is in vivo. The settings on record: foliar, 144 h, read-out: Mortality in % After 6 Days. On the procedure:
A suitable preparation of active ingredient was prepared by mixing one part by weight of active ingredient with the stated amounts of solvent and emulsifier and diluting the concentrate with emulsifier-containing water to the desired concentration as described below. A suitable suspension of biological agent was prepared by dissolving the cells, spores or viruses in emulsifier-containing water at the desired concentration.
Chinese cabbage (Brassica pekinensis) leaf disks infested by all stages of the green peach aphid (Myzus persicae) were sprayed with an active ingredient and/or biological agent preparation in the desired concentration.
After the desired time, the effect in % was ascertained. Here, 100% means that all of the aphids had been killed; 0% means that no aphids had been killed. The mortality figures determined are used for calculation according to the Colby formula (cf. Colby, S. R., “Calculating Synergistic and Antagonistic Responses of Herbicide Combinations”, Weeds 1967, 15, 20-22).

One may read the mortality as the share of the test organisms that died. `O=C(NCCc1ncc(C(F)(F)F)cc1Cl)c1ccccc1C(F)(F)F` [Fluopyram, fluopyram]: the mortality at 500 g/ha (500 g ai/ha) was determined as 0%. Also, the mortality at 1000 g/ha (1000 g ai/ha) worked out at 0%.

These data come from patent publication US20180064110A1, “COMBINATIONS OF FUNGICIDALLY ACTIVE YEAST AND FUNGICIDES” (Bayer CropScience AG, priority 2009, published 2018).
